# From patent US5045566A, “Novel imidate insecticides” (ICI Americas Inc., priority 1989, dated 1991)
# Columns and labels:
# Assay type in all cases: in vivo
# [1] = test system: Housefly [Musca domestica]; assay: Housefly contact mortality in dishes (HF), 48 hours; conditions: μg of test compound per 25 female flies
# Procedure: (§1) The compounds in Tables 1 and 2 above were tested for insecticidal activity using the following testing procedures. LC50 values, based on the results of these tests and calculated according to dosage-mortality curves, are expressed in Table 3.
# Housefly [Musca domestica]:
# Test compounds were diluted in acetone and aliquots pipetted onto the bottom of aluminum dishes. To ensure even spreading of the chemical on the bottom of the dishes, 1 ml of acetone containing 0.01% peanut oil was also added to each dish. After all solvents had evaporated, the dishes were placed in circular cardboard cages containing 25 female houseflies, 1-2 days old. The cages were covered on the bottom with cellophane and on the top with tulle netting, and each contained a sugar-water saturated cotton plug for maintenance of the flies. Mortality was recorded after 48 hours. Test levels ranged from 100 μg/25 female houseflies downward. The LC-50 value is expressed below in Table 3 under the heading "HF", in terms of μg of the test compound per 25 female flies.
# [2] = test system: Tobacco Budworm [Heliothis virescens (Fabricius)] eggs; assay: Tobacco budworm eggs (TBW-E); conditions: percent in solution; 2-day old eggs
# Procedure: as §1
# Tobacco Budworm [Heliothis virescens (Fabricius)]:
# (b). Eggs: Paper towel patches of 2-day old eggs of the tobacco budworm were dipped in acetone solutions of the test compound and placed in petri dishes containing a portion of larval rearing medium. Treated eggs were maintained at 78° F. and mortality was recorded after all control eggs had hatched and the young larvae were feeding on the media. Test concentrations ranged from 0.1% downward. The LC-50 value is expressed below in Table 3 under the heading "TBW-E" in terms of percent of the test compound in the solution.
# [3] = test system: Cabbage Looper [Trichoplusia ni (Hubner)]; assay: Cabbage looper leaf dip (CL), 3-5 days; conditions: percent in solution, second-instar larvae
# Procedure: as §1
# Cabbage Looper [Trichoplusia ni (Hubner)]:
# Test compounds were diluted in a 50-50 acetone-water solution. Cotyledons of hyzini squash (Calabacita abobrinha), approximately 1×1.5 inches, were immersed in the test solutions for 2-3 seconds and placed on a wire screen to dry. The dried leaves were placed in petri dishes containing a moistened piece of filter paper and infested with 5 second-instar cabbage looper larvae. The dishes were placed in a high humidity chamber. Mortality of the larvae was recorded 3-5 days later. Test concentrations ranged from 0.1% downward. The LC-50 value is expressed below in Table 3 under the heading "CL" in terms of percent of the test compound in solution.
SMILES,LC50 HF [1],LC50 TBW E (eggs) [2],LC50 CL [3]
CCC(C)C(=Nc1ccc(Cl)cc1)OCc1cccc(Oc2ccccc2)c1 (stereo not drawn) [Compound 26],> 100 µg,> 0.1%,0.007%
CC(Cl)C(=Nc1ccc(Cl)c(Cl)c1)OCc1cccc(Oc2ccccc2)c1 (stereo not drawn) [Compound 27],> 100 µg,> 0.1%,0.04%
CCC(=Nc1cccc(Cl)c1Cl)OCc1cccc(Oc2ccccc2)c1 [Compound 28],> 100 µg,> 0.1%,0.009%
CCC(=Nc1ccc(Cl)c(Cl)c1)OCc1cccc(Oc2ccccc2)c1 [Compound 36],20 µg,> 0.1%,0.024%
CCCC(=Nc1ccc(Cl)c(Cl)c1)OCc1cccc(Oc2ccccc2)c1 [Compound 38],33 µg,0.05%,0.006%
CCC(C)C(=Nc1ccc(Cl)c(Cl)c1)OCc1cccc(Oc2ccccc2)c1 (stereo not drawn) [Compound 39],> 100 µg,> 0.1%,0.0023%
CC(C)C(=Nc1ccc(Cl)c(Cl)c1)OCc1cccc(Oc2cccc(F)c2)c1 [Compound 40],36 µg,0.08%,0.0025%
CCC(=Nc1ccc(F)cc1F)OCc1cccc(Oc2ccccc2)c1 [Compound 59],25 µg,> 0.1%,0.02%
COc1ccc(N=C(OCc2cccc(Oc3ccc(F)cc3)c2)C(C)C)cc1Cl [Compound 110],26 µg,0.04%,0.007%
CC(C)C(=Nc1cccc(Oc2ccccn2)c1)OCc1cccc(Oc2ccccc2)c1 [Compound 114],92 µg,,< 0.1%
CCC(=Nc1ccc(F)c(Cl)c1)OCc1cccc(Oc2ccc(F)cc2)c1 [Compound 115],10 µg,0.075%,0.0012%
CC(Br)C(=Nc1ccc(F)c(Cl)c1)OCc1cccc(Oc2ccccc2)c1 (stereo not drawn) [Compound 118],18 µg,> 0.1%,0.0013%
CCCCC(=Nc1ccc(F)c(Cl)c1)OCc1cccc(Oc2ccccc2)c1 [Compound 121],> 100 µg,> 0.1%,0.1%
CCCC(=Nc1ccc(F)c(Cl)c1)OCc1cccc(Oc2ccccc2)c1 [Compound 123],> 100 µg,> 0.1%,0.012%
CC(C)C(=Nc1cccc(C#N)c1)OCc1cccc(Oc2ccccc2)c1 [Compound 126],> 100 µg,> 0.1%,0.08%
CC(=O)c1cccc(N=C(OCc2cccc(Oc3ccccc3)c2)C(C)C)c1 [Compound 170],37 µg,> 0.1%,0.1%
CCOc1cccc(N=C(OCc2cccc(Oc3ccccc3)c2)C(C)C)c1 [Compound 171],80 µg,> 0.1%,0.01%
CC(C)C(=Nc1ccc2c(c1)OC(C)(C)O2)OCc1cccc(Oc2ccccc2)c1 [Compound 182],28 µg,0.04%,0.0006%
CC(C)C(=Nc1ccc2c(c1)OCO2)OCc1cccc(Oc2ccccc2F)c1 [Compound 183],10 µg,0.075%,0.00075%
CCCC(=Nc1ccc(OC)cc1)OCc1cccc(Oc2ccccc2)c1 [Compound 184],61 µg,> 0.1%,0.024%
CCC(C)C(=Nc1ccc2c(c1)OCO2)OCc1cccc(Oc2ccccc2)c1 (stereo not drawn) [Compound 185],13 µg,0.075%,0.0006%
CC(C)C(=Nc1ccc2c(c1)OCO2)OCc1cccc(Oc2ccccc2F)c1 [Compound 190],7.5 µg,0.023%,0.0004%
CC(C)C(=Nc1cccc(C(F)(F)F)c1)OCc1cccc(Oc2cccc(F)c2)c1 [Compound 192],25 µg,0.07%,0.0012%

SMILES,LC50 HF [1],LC50 TBW E (eggs) [2],LC50 CL [3]
CC(C)C(=Nc1ccc(Cl)c(C(F)(F)F)c1)OCc1cccc(Oc2cccc(F)c2)c1 [Compound 195],> 100 µg,> 0.1%,0.002%
CC(C)C(=Nc1ccc(F)cc1)OCc1cccc(Oc2ccc(F)cc2)c1 [Compound 197],> 100 µg,0.05%,0.0004%
CC(C)C(=Nc1cccc(F)c1)OCc1cccc(Oc2ccc(F)cc2)c1 [Compound 200],7.5 µg,0.1%,0.00075%
COc1cccc(N=C(OCc2cccc(Oc3ccc(F)cc3)c2)C(C)C)c1 [Compound 201],15 µg,> 0.1%,0.004%
CC(C)C(=Nc1ccc(Cl)c(Cl)c1)OCc1cccc(Oc2cccc(Cl)c2)c1 [Compound 207],> 100 µg,> 0.1%,0.008%
CC(C)C(=Nc1ccc(F)c(F)c1)OCc1cccc(Oc2ccc(Br)cc2)c1 [Compound 275],21 µg,0.045%,0.00012%
CC(C)C(=Nc1ccc(F)c(Br)c1)OCc1cccc(Oc2ccc(Br)cc2)c1 [Compound 276],39 µg,0.1%,0.002%
CC(C)C(=Nc1ccc(C2CCCCC2)cc1)OCc1cccc(Oc2ccc(F)cc2)c1 [Compound 280],> 100 µg,> 0.1%,0.024%
CC(C)C(=Nc1ccc(C(F)(F)F)cc1)OCc1ccc(F)c(Oc2ccc(F)cc2)c1 [Compound 287],> 100 µg,> 0.1%,0.0025%
CC(C)C(=Nc1cccc(OC(F)(F)C(F)F)c1)OCc1cccc(Oc2ccc(F)cc2)c1 [Compound 288],> 100 µg,> 0.1%,0.0015%
CCC(CC)C(=Nc1ccc(Cl)cc1)OCc1cccc(Oc2ccc(F)cc2)c1 [Compound 290],> 100 µg,> 0.1%,0.017%
CCC(CC)C(=Nc1cccc(C(F)(F)F)c1)OCc1cccc(Oc2ccc(F)cc2)c1 [Compound 291],> 100 µg,> 0.1%,0.004%
CC(Br)C(=Nc1ccc(F)c(Cl)c1)OCc1cccc(Oc2ccc(F)cc2)c1 (stereo not drawn) [Compound 305],> 100 µg,> 0.1%,0.048%
CC(C)C(=Nc1ccc(C(C)(C)C)c(Cl)c1)OCc1cccc(Oc2ccc(F)cc2)c1 [Compound 308],> 100 µg,> 0.1%,0.009%
CC(C)(F)C(=Nc1ccc(F)c(Cl)c1)OCc1cccc(Oc2ccc(F)cc2)c1 [Compound 309],> 100 µg,0.07%,0.00017%
CC(C)C(=Nc1ccc(Cl)cc1Cl)OCc1cccc(Oc2ccccc2)c1 [Compound 311],22 µg,0.1%,0.0017%
CC(C)C(=Nc1ccc(Cl)cc1Cl)OCc1cccc(Oc2ccc(F)cc2)c1 [Compound 312],> 100 µg,> 0.1%,0.006%
CC(C)C(=Nc1ccc2c(c1)OCO2)OCc1ccc(F)c(Oc2ccc(Cl)cc2)c1 [Compound 313],> 100 µg,0.013%,0.00025%
CCC(C)C(=Nc1ccc(C(C)C)cc1)OCc1cccc(Oc2ccccc2)c1 (stereo not drawn) [Compound 317],> 100 µg,0.03%,0.0045%
CC(C)(F)C(=Nc1ccc(F)c(F)c1)OCc1cccc(Oc2ccc(F)cc2)c1 [Compound 318],19 µg,> 0.1%,0.0007%
CC(C)(F)C(=Nc1cccc(C(F)(F)F)c1)OCc1cccc(Oc2ccc(F)cc2)c1 [Compound 319],44 µg,> 0.1%,0.0007%
CCC(=Nc1ccc(C(C)C)cc1)OCc1cccc(Oc2ccc(F)cc2)c1 [Compound 320],> 100 µg,> 0.1%,0.0075%
CC(C)C(=Nc1ccc(F)c(Cl)c1)OC(F)c1cccc(Oc2ccc(F)cc2)c1 (stereo not drawn) [Compound 502],80 µg,,
